{"source": "paper PMC7228089", "about": "“Odiparcil, a potential glycosaminoglycans clearance therapy in mucopolysaccharidosis VI—Evidence from in vitro and in vivo models” (PLoS ONE, 2020)", "key": {"[1]": {"tested_on": "MPS VI patient fibroblasts GM00538", "experiment": "Number of cultured cells (viability) during odiparcil treatment", "format": "cell-based, human", "conditions": "different odiparcil concentrations, growing and confluent conditions", "experimental": "Primary skin fibroblasts from MPS VI patients GM00538 and GM02572 were obtained from the NIGMS Human Genetic Cell Repository at the Coriell Institute for Medical Research. Cell culturing was done according to the conditions provided by the Coriell Institute. For evaluation of the effect of odiparcil, cells were seeded in 96 well imaging plates (Falcon Cat N 353219) and two types of treatment were evaluated: i) prophylactic conditions—cells were treated with odiparcil before reaching confluence, 24 hours after plating; and ii) curative conditions—cells were treated with odiparcil after reaching confluence (10 days culturing). Cells were treated by odiparcil added to the culture media. This was done by replacing the initial culture media by media containing 0.1% DMSO with or without odiparcil (at 0.01, 0.03, 0.1, 0.3, 1, 3 and 10 μM). For treatment, the cells were incubated for 72 hours at 37°C, 5% CO2. All experimental conditions were performed in triplicate, i.e., 3 wells/test condition.\nAfter odiparcil treatment as described above, culture media were removed to be used for dimethylmethylene blue (DMMB) assay and the cells were fixed in PFA 4%. Immunofluorescent staining was done following standard protocol comprising permeabilization with 0.1% Triton X 100, blocking with 2% NGS, staining with primary antibody and staining with secondary antibody and Hoechst (for nuclei visualization). […]"}, "[2]": {"experiment": "Odiparcil tissue exposure after repeated oral dosing (LC-MS/MS)", "format": "in vivo, Sprague Dawley rats", "conditions": "rat", "experimental": "Sprague Dawley rats were orally administered with odiparcil for 5-days, three times a day (t.i.d) with a 25 mg/kg/dose as a suspension in Methylcellulose 400 cps 1% / Poloxamer 188 0.1% / Water. On day 5, only one dose was administered and tissues–bone from head of femurs and cartilage also from head of femurs, cornea and heart–were collected at 30 min post-dosing, 3 animals per sample. Tissues were snap-frozen immediately after collection and stored at -20°C until odiparcil quantification by LC-MS/MS. Non compartmental method was applied with Phoenix WinNonLin® to estimate the Cmax and AUC parameters. Tissue partition coefficient (Kp) was calculated on AUC values (AUC tissue / AUC plasma). Moreover, Kp for the heart was corrected for the significant blood content (26%) while it was not corrected for bone, cartilage and cornea."}, "Arsb^- mice": {"tested_on": "Arsb^- mice", "experiment": "Cartilage thickness in trachea and distal femoral growth plate (histology)", "format": "in vivo", "experimental": "MPS VI model nonsense mutation Arsb^m1J homozygous mice (referred to as Arsb^- throughout the manuscript) and WT littermates were obtained from internal breeding of stock mice derived from The Jackson Laboratory strain No: 005598 (C57BL/6J-Arsb^m1J/GrsrJ). Genotyping and Arsb^m1J mutation identification were performed according to the protocol provided by The Jackson Laboratory. Each study group contained mix of male and female: 6 animals in disease progression studies and between 8 and 12 animals in odiparcil treatment studies.\nHousing conditions. The animals were housed in groups of 3–10 (for mice) or 2 (for rats) in polypropylene cages (floor area = 1032 cm^2) under standard conditions: room temperature (22 ± 2°C), hygrometry (55 ± 10%), light/dark cycle (12h/12h), air replacement (15–20 volumes/hour), water and food ad libitum. Mice were allowed to habituate for at least 5 days prior to experimentation. Mice were numbered by marking their tail using indelible markers. For the early disease model (treatment starting in juvenile, 4 weeks old mice), odiparcil administration in the weeks 1 to 6 was done per gavage with odiparcil in Methylcellulose 400 cps 1% / Poloxamer 188 0.1% / Water, freshly prepared every week. Later on, administration was per chow diet with odiparcil mixed before diet granulation. […]"}, "[3]": {"conditions": "more than 30 clinical trials, total of 1900 subjects; earlier development as antithrombotic agent; cited from earlier work"}}, "note": "“And” between values parts separate entries of the source, which are not always exact repeats. Equal entries are not always repeated. Where two headings read alike, the source gives them in different places."}
{"smiles": "Cc1cc(=O)oc2cc(O[C@@H]3SC[C@@H](O)[C@H](O)[C@H]3O)ccc12", "note": "[Odiparcil, 4-methyl-7-(5-thio-β-D-xylopyranosyloxy)-2 H-chromen-2-one]", "values": [{"measurement": "Effect on viability of the cells (number of cells)", "setting": "[1]", "result": "no effect on viability of the cells"}, {"measurement": "Cmax", "setting": "[2]; Sprague-Dawley, bone (head of femurs), po, 25 mg/kg, bone (head of femurs), oral 25 mg/kg/dose t.i.d. 5 days, read-out: Cmax (converted)", "result": 1310, "unit": "ng/g"}, {"measurement": "Cmax", "setting": "[2]; Sprague-Dawley, bone (head of femurs), po, 25 mg/kg, bone, oral 25 mg/kg/dose t.i.d. 5 days, read-out: Cmax (converted)", "result": 4, "unit": "µM"}, {"measurement": "Kp at 120 h", "setting": "[2]; Sprague-Dawley, bone (head of femurs), po, 25 mg/kg, bone, oral 25 mg/kg/dose t.i.d. 5 days, read-out: Kp AUC (AUC tissue / AUC plasma)", "result": 0.18}, {"measurement": "Kp", "setting": "[2]; Sprague-Dawley, bone, cartilage, cornea, po, 25 mg/kg/dose, bone, cartilage and cornea together, repeated oral dosing, read-out: AUC Kp", "result": "~0.15"}, {"measurement": "Cmax", "setting": "[2]; Sprague-Dawley, bone, cartilage, cornea, po, 25 mg/kg/dose, span over bone, cartilage and cornea, repeated oral dosing, read-out: Cmax (converted)", "result": "500 ng/g to 1300 ng/g and 1.7 µM to 4 µM"}, {"measurement": "Cmax", "setting": "[2]; Sprague-Dawley, cartilage (head of femurs), po, 25 mg/kg, cartilage (head of femurs), oral 25 mg/kg/dose t.i.d. 5 days, read-out: Cmax (converted)", "result": 1100, "unit": "ng/g"}, {"measurement": "Cmax", "setting": "[2]; Sprague-Dawley, cartilage (head of femurs), po, 25 mg/kg, cartilage, oral 25 mg/kg/dose t.i.d. 5 days, read-out: Cmax (converted)", "result": 3.4, "unit": "µM"}, {"measurement": "Kp at 120 h", "setting": "[2]; Sprague-Dawley, cartilage (head of femurs), po, 25 mg/kg, cartilage, oral 25 mg/kg/dose t.i.d. 5 days, read-out: Kp AUC (AUC tissue / AUC plasma)", "result": 0.12}, {"measurement": "Cmax", "setting": "[2]; Sprague-Dawley, cornea, po, 25 mg/kg, cornea, oral 25 mg/kg/dose t.i.d. 5 days, read-out: Cmax (converted)", "result": "535 ng/g and 1.7 µM"}, {"measurement": "Kp at 120 h", "setting": "[2]; Sprague-Dawley, cornea, po, 25 mg/kg, cornea, oral 25 mg/kg/dose t.i.d. 5 days, read-out: Kp AUC (AUC tissue / AUC plasma)", "result": 0.12}, {"measurement": "Kp at 120 h", "setting": "[2]; Sprague-Dawley, heart, po, 25 mg/kg, heart, corrected for blood content (26%), oral 25 mg/kg/dose t.i.d. 5 days, read-out: blood corrected Kp AUC", "result": "~0.44"}, {"measurement": "Kp at 120 h", "setting": "[2]; Sprague-Dawley, heart, po, 25 mg/kg, heart, not blood corrected, oral 25 mg/kg/dose t.i.d. 5 days, read-out: Kp AUC (AUC tissue / AUC plasma)", "result": 0.69}, {"measurement": "Cmax", "setting": "[2]; Sprague-Dawley, heart, po, 25 mg/kg, heart, oral 25 mg/kg/dose t.i.d. 5 days, read-out: Cmax (converted)", "result": "~4600 ng/g and ~14.3 µM"}, {"measurement": "Cmax", "setting": "[2]; Sprague-Dawley, plasma, po, 25 mg/kg, plasma, oral 25 mg/kg/dose t.i.d. 5 days, 30 min after last administration, read-out: Cmax (converted)", "result": "~7300", "unit": "ng/mL"}, {"measurement": "Cmax", "setting": "[2]; Sprague-Dawley, plasma, po, 25 mg/kg, plasma, oral 25 mg/kg/dose t.i.d. 5 days, read-out: Cmax (converted)", "result": "~22.5", "unit": "µM"}, {"measurement": "AUC", "setting": "[2]; Sprague-Dawley, plasma, oral 25 mg/kg/dose t.i.d. 5 days, read-out: AUC (converted)", "result": 14800, "unit": "ng·h/mL"}, {"measurement": "AUC", "setting": "[2]; bone, oral 25 mg/kg/dose t.i.d. 5 days", "result": "2 646 ng.h/g"}, {"measurement": "AUC", "setting": "[2]; cartilage, oral 25 mg/kg/dose t.i.d. 5 days", "result": "1 805 ng.h/g"}, {"measurement": "AUC", "setting": "[2]; cornea, oral 25 mg/kg/dose t.i.d. 5 days", "result": "1 737 ng.h/g"}, {"measurement": "AUC", "setting": "[2]; heart, oral 25 mg/kg/dose t.i.d. 5 days", "result": "10 203 ng.h/g"}, {"measurement": "Cmax", "setting": "[2]; plasma, oral 25 mg/kg/dose t.i.d. 5 days, 30 min after last administration, 25 mg/kg", "result": "7 297 ng/mL"}, {"measurement": "Cartilage thickening in trachea and distal femoral growth plate", "setting": "Arsb^- mice; Arsb^- mice, early and established disease models, 6 months of treatment", "result": "dose-dependent reduction of cartilage thickening"}, {"measurement": "Cartilage thickness in wild type animals", "setting": "Arsb^- mice; wild type mice, early disease treatment model, only distal femoral growth plate, significant only for the high dose", "result": "Some decrease in the thickness of cartilage"}, {"measurement": "Safety and tolerability in clinical trials", "setting": "[3]", "result": "good safety and tolerability"}]}
